Columns and labels:
Assay in all cases: relative viability (nuclei count vs DMSO), 5 days (fraction); higher = more cells survive
[1] = test system: NCI-H1792
In short: (§1)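 Lung cancer cell lines were seeded in 1536-well plates and dosed by pin tool the next day, with either a single drug or a fixed anchor-drug dose combined with five library-drug doses (not always all listed) spaced in √10 steps. Five days later, one step fixed the cells and stained their nuclei (final 0.05% Triton X-100, 1% formaldehyde, 1 ug/ml Hoechst), and nuclei were counted on 4× images. Relative viability is the nuclei count in treated wells divided by the count in vehicle wells, and each value is the median of duplicate plates.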

[2] = test system: NCI-H727
In short: as §1

[3] = test system: LXF-289
In short: as §1

[4] = test system: SK-MES-1
In short: as §1

[5] = test system: NCI-H1755
In short: as §1

[6] = test system: NCI-H596
In short: as §1

[7] = test system: NCI-H1651
In short: as §1

[8] = test system: NCI-H2347
In short: as §1

[9] = test system: NCI-H3122
In short: as §1

[10] = test system: NCI-H1355
In short: as §1

[11] = test system: NCI-H1915
In short: as §1

[12] = test system: RERF-LC-KJ
In short: as §1

[13] = test system: LCLC-103H
In short: as §1

[14] = test system: PC-14
In short: as §1

[15] = test system: NCI-H1563
In short: as §1

[16] = test system: NCI-H441
In short: as §1

[17] = test system: NCI-H661
In short: as §1

[18] = test system: NCI-H322M
In short: as §1

[19] = test system: NCI-H460
In short: as §1

[20] = test system: NCI-H520
In short: as §1

O=c1cc(-c2cccc3c2Sc2ccccc2S3)oc(N2CCOCC2)c1 + C[C@@H](Oc1cc(-c2cnn(C3CCNCC3)c2)cnc1N)c1c(Cl)ccc(F)c1Cl [Crizotinib] (partner 1 µM)
relative viability ([1]; first compound 0.253 µM): 1.64
relative viability ([1]; first compound 0.8 µM): 0.987
relative viability ([1]; first compound 2.53 µM): 0.896
relative viability ([1]; first compound 8 µM): 1.19
relative viability ([2]; first compound 0.253 µM): 0.892
relative viability ([2]; first compound 2.53 µM): 0.724
relative viability ([2]; first compound 8 µM): 0.868
relative viability ([3]; first compound 0.08 µM): 0.839
relative viability ([3]; first compound 0.253 µM): 0.877
relative viability ([3]; first compound 0.8 µM): 0.849
relative viability ([3]; first compound 2.53 µM): 0.8
relative viability ([3]; first compound 8 µM): 0.845
relative viability ([4]; first compound 0.08 µM): 1.03
relative viability ([4]; first compound 0.253 µM): 0.949
relative viability ([4]; first compound 0.8 µM): 0.937
relative viability ([4]; first compound 2.53 µM): 0.925
relative viability ([4]; first compound 8 µM): 1.02
relative viability ([5]; first compound 0.08 µM): 0.961
relative viability ([5]; first compound 0.253 µM): 0.974
relative viability ([5]; first compound 0.8 µM): 0.937
relative viability ([5]; first compound 2.53 µM): 0.878
relative viability ([5]; first compound 8 µM): 0.85
relative viability ([6]; first compound 0.08 µM): 0.96
relative viability ([6]; first compound 0.253 µM): 1.08
relative viability ([6]; first compound 0.8 µM): 0.982
relative viability ([6]; first compound 2.53 µM): 0.891
relative viability ([6]; first compound 8 µM): 0.806
relative viability ([7]; first compound 0.08 µM): 0.916
relative viability ([7]; first compound 0.253 µM): 0.889
relative viability ([7]; first compound 0.8 µM): 0.916
relative viability ([7]; first compound 2.53 µM): 0.882
relative viability ([7]; first compound 8 µM): 0.903
relative viability ([8]; first compound 0.08 µM): 0.654
relative viability ([8]; first compound 0.253 µM): 0.394
relative viability ([8]; first compound 0.8 µM): 0.738
relative viability ([8]; first compound 2.53 µM): 0.769
relative viability ([8]; first compound 8 µM): 0.711
relative viability ([9]; first compound 0.08 µM): 0.324
relative viability ([9]; first compound 0.253 µM): 0.266
relative viability ([9]; first compound 0.8 µM): 0.24
relative viability ([9]; first compound 2.53 µM): 0.3
relative viability ([9]; first compound 8 µM): 0.323
relative viability ([10]; first compound 0.08 µM): 1.08
relative viability ([10]; first compound 0.253 µM): 1.16
relative viability ([10]; first compound 0.8 µM): 1.04
relative viability ([10]; first compound 2.53 µM): 1.06
relative viability ([10]; first compound 8 µM): 0.98
relative viability ([11]; first compound 0.08 µM): 1.02
relative viability ([11]; first compound 0.253 µM): 0.987
relative viability ([11]; first compound 0.8 µM): 1.02
relative viability ([11]; first compound 2.53 µM): 0.905
relative viability ([11]; first compound 8 µM): 0.847
relative viability ([12]; first compound 0.08 µM): 0.823
relative viability ([12]; first compound 0.253 µM): 0.922
relative viability ([12]; first compound 0.8 µM): 0.871
relative viability ([12]; first compound 2.53 µM): 0.948
relative viability ([12]; first compound 8 µM): 1.05
relative viability ([13]; first compound 0.08 µM): 1.06
relative viability ([13]; first compound 0.253 µM): 1.07
relative viability ([13]; first compound 0.8 µM): 1.06
relative viability ([13]; first compound 2.53 µM): 1.05
relative viability ([13]; first compound 8 µM): 1.05
relative viability ([14]; first compound 0.08 µM): 0.979
relative viability ([14]; first compound 0.253 µM): 1.13
relative viability ([14]; first compound 0.8 µM): 0.945
relative viability ([14]; first compound 2.53 µM): 0.899
relative viability ([14]; first compound 8 µM): 0.868
relative viability ([15]; first compound 0.08 µM): 0.93
relative viability ([15]; first compound 0.253 µM): 0.758
relative viability ([15]; first compound 0.8 µM): 0.792
relative viability ([15]; first compound 2.53 µM): 0.804
relative viability ([15]; first compound 8 µM): 0.887
relative viability ([16]; first compound 0.08 µM): 0.697
relative viability ([16]; first compound 0.253 µM): 1.28
relative viability ([16]; first compound 0.8 µM): 0.779
relative viability ([16]; first compound 2.53 µM): 0.807
relative viability ([16]; first compound 8 µM): 1
relative viability ([17]; first compound 0.08 µM): 1.15
relative viability ([17]; first compound 0.253 µM): 1.04
relative viability ([17]; first compound 0.8 µM): 1.13
relative viability ([17]; first compound 2.53 µM): 0.939
relative viability ([17]; first compound 8 µM): 0.958
relative viability ([18]; first compound 0.08 µM): 0.885
relative viability ([18]; first compound 0.253 µM): 0.901
relative viability ([18]; first compound 0.8 µM): 1.04
relative viability ([18]; first compound 2.53 µM): 0.937
relative viability ([18]; first compound 8 µM): 1.08
relative viability ([19]; first compound 0.08 µM): 1
relative viability ([19]; first compound 0.8 µM): 0.761
relative viability ([19]; first compound 2.53 µM): 1.12
relative viability ([19]; first compound 8 µM): 1.79
relative viability ([20]; first compound 0.08 µM): 0.447
relative viability ([20]; first compound 0.253 µM): 0.695
relative viability ([20]; first compound 0.8 µM): 0.976
relative viability ([20]; first compound 2.53 µM): 0.821
relative viability ([20]; first compound 8 µM): 0.821

O=c1cc(N2CCOCC2)oc2c(-c3cccc4c3sc3ccccc34)cccc12 + C[C@]1(O)C[C@@H](c2nc(-c3ccc4ccc(-c5ccccc5)nc4c3)c3c(N)nccn32)C1 [Linsitinib] (partner 1 µM)
relative viability ([1]; first compound 0.01 µM): 0.514
relative viability ([1]; first compound 0.03162 µM): 0.513
relative viability ([1]; first compound 0.1 µM): 0.564
relative viability ([1]; first compound 0.3162 µM): 0.502
relative viability ([1]; first compound 1 µM): 0.574
relative viability ([2]; first compound 0.01 µM): 0.29
relative viability ([2]; first compound 0.03162 µM): 0.238
relative viability ([2]; first compound 0.1 µM): 0.243
relative viability ([2]; first compound 0.3162 µM): 0.227
relative viability ([2]; first compound 1 µM): 0.283
relative viability ([3]; first compound 0.01 µM): 0.983
relative viability ([3]; first compound 0.03162 µM): 0.927
relative viability ([3]; first compound 0.1 µM): 0.978
relative viability ([3]; first compound 0.3162 µM): 0.978
relative viability ([3]; first compound 1 µM): 0.897
relative viability ([4]; first compound 0.01 µM): 1.17
relative viability ([4]; first compound 0.03162 µM): 1.02
relative viability ([4]; first compound 0.1 µM): 1.05
relative viability ([4]; first compound 0.3162 µM): 1.09
relative viability ([4]; first compound 1 µM): 1.01
relative viability ([5]; first compound 0.01 µM): 1.04
relative viability ([5]; first compound 0.03162 µM): 0.98
relative viability ([5]; first compound 0.1 µM): 1.03
relative viability ([5]; first compound 0.3162 µM): 1.03
relative viability ([5]; first compound 1 µM): 1.01
relative viability ([6]; first compound 0.01 µM): 1.14
relative viability ([6]; first compound 0.03162 µM): 1.02
relative viability ([6]; first compound 0.1 µM): 1.19
relative viability ([6]; first compound 0.3162 µM): 0.968
relative viability ([6]; first compound 1 µM): 0.921
relative viability ([7]; first compound 0.01 µM): 1.1
relative viability ([7]; first compound 0.03162 µM): 1.07
relative viability ([7]; first compound 0.1 µM): 1.02
relative viability ([7]; first compound 0.3162 µM): 1.05
relative viability ([7]; first compound 1 µM): 0.912
relative viability ([8]; first compound 0.01 µM): 1.02
relative viability ([8]; first compound 0.03162 µM): 0.943
relative viability ([8]; first compound 0.1 µM): 0.962
relative viability ([8]; first compound 0.3162 µM): 0.926
relative viability ([8]; first compound 1 µM): 0.945
relative viability ([9]; first compound 0.01 µM): 1.01
relative viability ([9]; first compound 0.03162 µM): 0.977
relative viability ([9]; first compound 0.1 µM): 1.12
relative viability ([9]; first compound 0.3162 µM): 1.03
relative viability ([9]; first compound 1 µM): 0.944
relative viability ([10]; first compound 0.01 µM): 0.772
relative viability ([10]; first compound 0.03162 µM): 0.895
relative viability ([10]; first compound 0.3162 µM): 0.819
relative viability ([10]; first compound 1 µM): 0.849
relative viability ([11]; first compound 0.01 µM): 1.04
relative viability ([11]; first compound 0.03162 µM): 1.15
relative viability ([11]; first compound 0.1 µM): 0.636
relative viability ([11]; first compound 0.3162 µM): 1.1
relative viability ([11]; first compound 1 µM): 1.08
relative viability ([12]; first compound 0.01 µM): 0.908
relative viability ([12]; first compound 0.03162 µM): 0.937
relative viability ([12]; first compound 0.1 µM): 0.914
relative viability ([12]; first compound 0.3162 µM): 0.869
relative viability ([12]; first compound 1 µM): 0.874
relative viability ([13]; first compound 0.01 µM): 1.09
relative viability ([13]; first compound 0.03162 µM): 1.04
relative viability ([13]; first compound 0.1 µM): 1.03
relative viability ([13]; first compound 0.3162 µM): 1.08
relative viability ([13]; first compound 1 µM): 0.978
relative viability ([14]; first compound 0.01 µM): 0.998
relative viability ([14]; first compound 0.03162 µM): 0.934
relative viability ([14]; first compound 0.1 µM): 0.952
relative viability ([14]; first compound 0.3162 µM): 0.952
relative viability ([14]; first compound 1 µM): 0.848
relative viability ([15]; first compound 0.01 µM): 1.18
relative viability ([15]; first compound 0.03162 µM): 1.21
relative viability ([15]; first compound 0.1 µM): 1.19
relative viability ([15]; first compound 0.3162 µM): 1.14
relative viability ([15]; first compound 1 µM): 1
relative viability ([16]; first compound 0.01 µM): 0.53
relative viability ([16]; first compound 0.03162 µM): 0.518
relative viability ([16]; first compound 0.1 µM): 0.582
relative viability ([16]; first compound 0.3162 µM): 0.555
relative viability ([16]; first compound 1 µM): 0.594
relative viability ([17]; first compound 0.01 µM): 0.652
relative viability ([17]; first compound 0.03162 µM): 0.579
relative viability ([17]; first compound 0.1 µM): 0.571
relative viability ([17]; first compound 0.3162 µM): 0.649
relative viability ([17]; first compound 1 µM): 0.614
relative viability ([18]; first compound 0.01 µM): 0.913
relative viability ([18]; first compound 0.03162 µM): 0.915
relative viability ([18]; first compound 0.3162 µM): 0.993
relative viability ([18]; first compound 1 µM): 0.83
relative viability ([19]; first compound 0.01 µM): 0.764
relative viability ([19]; first compound 0.03162 µM): 0.708
relative viability ([19]; first compound 0.1 µM): 0.739
relative viability ([19]; first compound 0.3162 µM): 0.822
relative viability ([19]; first compound 1 µM): 0.78
relative viability ([20]; first compound 0.01 µM): 1.02
relative viability ([20]; first compound 0.03162 µM): 1.01
relative viability ([20]; first compound 0.1 µM): 1.22
relative viability ([20]; first compound 0.3162 µM): 0.923
relative viability ([20]; first compound 1 µM): 0.876
